Patent US10294212B2 (CURADEV PHARMA PRIVATE LTD., priority 2013, dated 2019)

target: Human indoleamine 2,3-dioxygenase1 (hIDO1) (Homo sapiens (Human), UniProt P14902); assay: In-vitro IDO1 enzyme assay (conversion of L-tryptophan to KYN); type: biochemical; conditions: read-out: IC50 (IDO1) Enz
How it was run: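 His-tagged hIDO1 (10 nM, E. coli-expressed) incubated with 30 μM L-tryptophan, 20 mM ascorbate, 10 μM methylene blue and 100 μg/mL catalase in 50 mM potassium phosphate pH 6.5, 30 min at 37 °C. TCA stop, then 65 °C hydrolysis; KYN measured by HPLC-UV at 360 nm or LC/MS/MS. IC50 by nonlinear regression versus 1% DMSO control.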

Sequence of Human indoleamine 2,3-dioxygenase1 (hIDO1) (P14902 whole entry): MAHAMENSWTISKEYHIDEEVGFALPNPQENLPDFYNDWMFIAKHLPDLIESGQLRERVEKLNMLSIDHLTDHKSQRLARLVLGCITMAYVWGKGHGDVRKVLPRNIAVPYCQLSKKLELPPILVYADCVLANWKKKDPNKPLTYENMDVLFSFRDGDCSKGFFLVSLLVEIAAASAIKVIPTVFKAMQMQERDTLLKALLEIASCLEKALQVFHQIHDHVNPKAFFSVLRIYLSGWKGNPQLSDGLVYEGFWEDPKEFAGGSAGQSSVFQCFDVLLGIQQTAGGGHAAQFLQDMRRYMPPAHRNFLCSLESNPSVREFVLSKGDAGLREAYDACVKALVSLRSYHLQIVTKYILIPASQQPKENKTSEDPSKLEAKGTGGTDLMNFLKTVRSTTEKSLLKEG

SMILES	IC50 [nM]
Cc1cc(C)cc(Nc2c(N)oc3cnccc23)c1 [Compound 14, N^3-(3,5-Dimethylphenyl)furo[2,3-c]pyridine-2,3-diamine]	200 to 1000
Nc1oc2cnccc2c1Nc1ccc(Cl)c(Cl)c1 [Compound 15, N^3-(3,4-Dichlorophenyl)furo[2,3-c]pyridine-2,3-diamine]	200 to 1000
Nc1oc2cnccc2c1Nc1ccc(Br)cc1 [Compound 16, N^3-(4-Bromophenyl)furo[2,3-c]pyridine-2,3-diamine]	> 1000
CCc1cccc(Nc2c(N)oc3cnccc23)c1 [Compound 19, N^3-(3-Ethylphenyl)furo[2,3-c]pyridine-2,3-diamine]	200 to 1000
Nc1oc2cnccc2c1Nc1cccc(I)c1 [Compound 20, N^3-(3-Iodophenyl)furo[2,3-c]pyridine-2,3-diamine]	< 200
Cc1ccc(Nc2c(N)oc3cnccc23)cc1Br [Compound 21, N^3-(3-Bromo-4-methylphenyl)furo[2,3-c]pyridine-2,3-diamine]	200 to 1000
Nc1oc2cnccc2c1Nc1cc(F)c(F)c(Br)c1 [Compound 22, N^3-(3-Bromo-4,5-difluorophenyl)furo[2,3-c]pyridine-2,3-diamine]	> 1000
COc1ccc(Cl)cc1Nc1c(N)oc2cnccc12 [Compound 25, N^3-(5-Chloro-2-methoxyphenyl)furo[2,3-c]pyridine-2,3-diamine]	> 1000
Nc1oc2cnccc2c1Nc1cccc(C(F)(F)F)c1 [Compound 26, N^3-(3-(Trifluoromethyl)phenyl)furo[2,3-c]pyridine-2,3-diamine]	< 200
Cc1cc(Nc2c(N)oc3cnccc23)ccc1F [Compound 27, N^3-(4-Fluoro-3-methylphenyl)furo[2,3-c]pyridine-2,3-diamine]	< 200
Cc1ccc(Nc2c(N)oc3cnccc23)cc1Cl [Compound 33, N^3-(3-Chloro-4-methylphenyl)furo[2,3-c]pyridine-2,3-diamine]	< 200
Nc1oc2cnccc2c1Nc1ccc2c(c1)OCO2 [Compound 35, N^3-(Benzo[d][1,3]dioxol-5-yl)furo[2,3-c]pyridine-2,3-diamine]	200 to 1000
Cc1ccc(Nc2c(N)oc3cnccc23)cc1 [Compound 40, N^3-(p-tolyl)Furo[2,3-c]pyridine-2,3-diamine]	> 1000
Nc1oc2cnccc2c1Nc1cccc(C2CC2)c1 [Compound 42, N^3-(3-Cyclopropylphenyl)furo[2,3-c]pyridine-2,3-diamine]	< 200
CC(C)c1cccc(Nc2c(N)oc3cnccc23)c1 [Compound 43, N^3-(3-Isopropylphenyl)furo[2,3-c]pyridine-2,3-diamine]	200 to 1000
Nc1oc2cnccc2c1Nc1ccc(F)c(Cl)c1F [Compound 44, N^3-(3-Chloro-2,4-difluorophenyl)furo[2,3-c]pyridine-2,3-diamine]	200 to 1000
Nc1oc2cnccc2c1Nc1cccc(F)c1 [Compound 46, N^3-(3-Fluorophenyl)furo[2,3-c]pyridine-2,3-diamine]	200 to 1000

target: IDO1 in HeLa cells (Homo sapiens (Human), UniProt P14902); assay: HeLa cell based IDO1 assay (IFNγ-induced, KYN in supernatant); conditions: not given
Description: HeLa cells were obtained from ATCC and maintained in DMEM supplemented with sodium bicarbonate (2.1 g/L), HEPES (4.1 g/L), L-glutamine (2 mM), non-essential amino acid (84 mg/L) and fetal bovine serum (10% FBS) and maintained at 95% humidity and 5% CO2 in a 37° C. incubator. Unless otherwise stated, all materials were procured from Sigma. Upon incubation with gamma-interferon (IFNγ ), HeLa cells express IDO1, which catalyzes the formation of N-formyl kynurenine from tryptophan present in growth medium. The assay was performed as follows:
Cells were plated in medium (300 μL) at a density of 0.1 million per well of a 48 well plate and hIDO1 was induced by overnight treatment with IFNγ (50 ng/mL) (Peprotech, USA). The following day, cells were washed to remove IFNγ and were incubated with specific concentrations of test compounds (typically 10 μM to 1 nM, final volume 300 μL) in Hanks Balanced Salt Solution (HBSS) containing 80 μM L-tryptophan. Following incubation, supernatant (150 μL) was transferred to a 96 well plate into which 30%TCA (304) was added and the contents further incubated at 65° C. for 15 min to fully convert N-formylkynurenine to kynurenine. The reaction mixture was then centrifuged to remove sediments and the KYN in the supernatant was estimated by UV-visible absorption spectroscopy at 360 nm using a Waters HPLC system fitted with a C-18 column. (Xiangdong Liu et al. Blood 2010, Vol-117, 3520-30; Sono described above).
Percent inhibition at each concentration of test compounds was determined by estimating the decrease in KYN with reference to the reaction control with 1% DMSO vehicle. Data were analyzed using nonlinear regression to generate IC50 values using Graph Pad Prism® 5.

Sequence of IDO1 in HeLa cells (P14902 whole entry): as above

SMILES	IC50 [nM]
Cc1cc(C)cc(Nc2c(N)oc3cnccc23)c1 [Compound 14, N^3-(3,5-Dimethylphenyl)furo[2,3-c]pyridine-2,3-diamine]	< 200
Nc1oc2cnccc2c1Nc1ccc(Cl)c(Cl)c1 [Compound 15, N^3-(3,4-Dichlorophenyl)furo[2,3-c]pyridine-2,3-diamine]	200 to 1000
Nc1oc2cnccc2c1Nc1ccc(Br)cc1 [Compound 16, N^3-(4-Bromophenyl)furo[2,3-c]pyridine-2,3-diamine]	200 to 1000
CCc1cccc(Nc2c(N)oc3cnccc23)c1 [Compound 19, N^3-(3-Ethylphenyl)furo[2,3-c]pyridine-2,3-diamine]	200 to 1000
Nc1oc2cnccc2c1Nc1cccc(I)c1 [Compound 20, N^3-(3-Iodophenyl)furo[2,3-c]pyridine-2,3-diamine]	< 200
Cc1ccc(Nc2c(N)oc3cnccc23)cc1Br [Compound 21, N^3-(3-Bromo-4-methylphenyl)furo[2,3-c]pyridine-2,3-diamine]	< 200
Nc1oc2cnccc2c1Nc1cc(F)c(F)c(Br)c1 [Compound 22, N^3-(3-Bromo-4,5-difluorophenyl)furo[2,3-c]pyridine-2,3-diamine]	200 to 1000
COc1ccc(Cl)cc1Nc1c(N)oc2cnccc12 [Compound 25, N^3-(5-Chloro-2-methoxyphenyl)furo[2,3-c]pyridine-2,3-diamine]	200 to 1000
Nc1oc2cnccc2c1Nc1cccc(C(F)(F)F)c1 [Compound 26, N^3-(3-(Trifluoromethyl)phenyl)furo[2,3-c]pyridine-2,3-diamine]	< 200
Cc1cc(Nc2c(N)oc3cnccc23)ccc1F [Compound 27, N^3-(4-Fluoro-3-methylphenyl)furo[2,3-c]pyridine-2,3-diamine]	< 200
Cc1ccc(Nc2c(N)oc3cnccc23)cc1Cl [Compound 33, N^3-(3-Chloro-4-methylphenyl)furo[2,3-c]pyridine-2,3-diamine]	< 200
Nc1oc2cnccc2c1Nc1ccc2c(c1)OCO2 [Compound 35, N^3-(Benzo[d][1,3]dioxol-5-yl)furo[2,3-c]pyridine-2,3-diamine]	< 200
Cc1ccc(Nc2c(N)oc3cnccc23)cc1 [Compound 40, N^3-(p-tolyl)Furo[2,3-c]pyridine-2,3-diamine]	< 200
Nc1oc2cnccc2c1Nc1cccc(C2CC2)c1 [Compound 42, N^3-(3-Cyclopropylphenyl)furo[2,3-c]pyridine-2,3-diamine]	< 200
CC(C)c1cccc(Nc2c(N)oc3cnccc23)c1 [Compound 43, N^3-(3-Isopropylphenyl)furo[2,3-c]pyridine-2,3-diamine]	< 200
Nc1oc2cnccc2c1Nc1ccc(F)c(Cl)c1F [Compound 44, N^3-(3-Chloro-2,4-difluorophenyl)furo[2,3-c]pyridine-2,3-diamine]	< 200
Nc1oc2cnccc2c1Nc1cccc(F)c1 [Compound 46, N^3-(3-Fluorophenyl)furo[2,3-c]pyridine-2,3-diamine]	< 200

target: Human TDO (hTDO)-transfected CHO-K1 cells (Homo sapiens (Human), UniProt P48775); assay: CHO-K1 cell based TDO assay; conditions: hTDO cellular assay
How it was run: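 Stably hTDO-expressing CHO-K1 cells were exposed to compounds (typically 31 μM to 10 nM) in HBSS with 80 μM L-tryptophan for 2 h. TCA-treated supernatant was heated at 65° C for 15 min to convert N-formylkynurenine, then kynurenine was quantified by LC/MS/MS. IC50 came from percent inhibition versus DMSO control.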

Sequence of Human TDO (hTDO)-transfected CHO-K1 cells (P48775 whole entry): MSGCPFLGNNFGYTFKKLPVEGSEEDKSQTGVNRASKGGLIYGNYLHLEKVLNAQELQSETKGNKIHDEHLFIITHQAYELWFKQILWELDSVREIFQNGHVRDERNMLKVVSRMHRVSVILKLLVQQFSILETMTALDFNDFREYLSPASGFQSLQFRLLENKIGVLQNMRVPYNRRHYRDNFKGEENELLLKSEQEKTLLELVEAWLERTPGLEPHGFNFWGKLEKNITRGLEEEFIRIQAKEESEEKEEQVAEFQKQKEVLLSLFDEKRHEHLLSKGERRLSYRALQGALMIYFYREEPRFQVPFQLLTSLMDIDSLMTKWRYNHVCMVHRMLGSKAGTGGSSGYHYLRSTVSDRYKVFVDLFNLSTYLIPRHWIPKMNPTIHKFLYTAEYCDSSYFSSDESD

SMILES	IC50 [nM]
Cc1cc(C)cc(Nc2c(N)oc3cnccc23)c1 [Compound 14, N^3-(3,5-Dimethylphenyl)furo[2,3-c]pyridine-2,3-diamine]	500 to 2000
Nc1oc2cnccc2c1Nc1ccc(Cl)c(Cl)c1 [Compound 15, N^3-(3,4-Dichlorophenyl)furo[2,3-c]pyridine-2,3-diamine]	500 to 2000
Nc1oc2cnccc2c1Nc1ccc(Br)cc1 [Compound 16, N^3-(4-Bromophenyl)furo[2,3-c]pyridine-2,3-diamine]	500 to 2000
CCc1cccc(Nc2c(N)oc3cnccc23)c1 [Compound 19, N^3-(3-Ethylphenyl)furo[2,3-c]pyridine-2,3-diamine]	> 2000
Nc1oc2cnccc2c1Nc1cccc(I)c1 [Compound 20, N^3-(3-Iodophenyl)furo[2,3-c]pyridine-2,3-diamine]	500 to 2000
Cc1ccc(Nc2c(N)oc3cnccc23)cc1Br [Compound 21, N^3-(3-Bromo-4-methylphenyl)furo[2,3-c]pyridine-2,3-diamine]	500 to 2000
Nc1oc2cnccc2c1Nc1cc(F)c(F)c(Br)c1 [Compound 22, N^3-(3-Bromo-4,5-difluorophenyl)furo[2,3-c]pyridine-2,3-diamine]	> 2000
COc1ccc(Cl)cc1Nc1c(N)oc2cnccc12 [Compound 25, N^3-(5-Chloro-2-methoxyphenyl)furo[2,3-c]pyridine-2,3-diamine]	500 to 2000
Nc1oc2cnccc2c1Nc1cccc(C(F)(F)F)c1 [Compound 26, N^3-(3-(Trifluoromethyl)phenyl)furo[2,3-c]pyridine-2,3-diamine]	500 to 2000
Cc1cc(Nc2c(N)oc3cnccc23)ccc1F [Compound 27, N^3-(4-Fluoro-3-methylphenyl)furo[2,3-c]pyridine-2,3-diamine]	500 to 2000
Cc1ccc(Nc2c(N)oc3cnccc23)cc1Cl [Compound 33, N^3-(3-Chloro-4-methylphenyl)furo[2,3-c]pyridine-2,3-diamine]	500 to 2000
Nc1oc2cnccc2c1Nc1ccc2c(c1)OCO2 [Compound 35, N^3-(Benzo[d][1,3]dioxol-5-yl)furo[2,3-c]pyridine-2,3-diamine]	500 to 2000
Cc1ccc(Nc2c(N)oc3cnccc23)cc1 [Compound 40, N^3-(p-tolyl)Furo[2,3-c]pyridine-2,3-diamine]	500 to 2000
Nc1oc2cnccc2c1Nc1cccc(C2CC2)c1 [Compound 42, N^3-(3-Cyclopropylphenyl)furo[2,3-c]pyridine-2,3-diamine]	> 2000
CC(C)c1cccc(Nc2c(N)oc3cnccc23)c1 [Compound 43, N^3-(3-Isopropylphenyl)furo[2,3-c]pyridine-2,3-diamine]	> 2000
Nc1oc2cnccc2c1Nc1ccc(F)c(Cl)c1F [Compound 44, N^3-(3-Chloro-2,4-difluorophenyl)furo[2,3-c]pyridine-2,3-diamine]	500 to 2000
Nc1oc2cnccc2c1Nc1cccc(F)c1 [Compound 46, N^3-(3-Fluorophenyl)furo[2,3-c]pyridine-2,3-diamine]	500 to 2000
